The subject of data set [1] is alloxan-induced diabetic rats. Put plainly: Blood glucose level in alloxan-induced diabetes model. Type of data set: in vivo, Wistar female rats. The conditions noted are these: mean ± SD; for Blood glucose (BG) level, mean: alloxan-induced diabetic rats, oral gavage daily for 5 weeks, metformin 300 mg/kg/day, S 150 mg/kg/day, sage extract 150 mg/kg/day; for Average blood glucose reduction (pre- vs post-treatment): end of week 3 vs end of week 8, oral daily 5 weeks, metformin 300, S 150, sage 150 mg/kg/day. How it is done:
The in vivo experiment was conducted using Wistar female rats, obtained through the “Grigore T. Popa” University of Medicine and Pharmacy (UMF) Iași, from the Cantacuzino Institute in Bucharest, Romania. Throughout the experimental period, the animals were housed at the CEMEX biobase, within the UMF “Grigore T. Popa” Iași. […] Female rats were selected in alignment with the broader research objective focused on diabetes-induced alterations of the female reproductive system.
Following a 7-day acclimatization period, diabetes was induced in groups 2–6 by a single intraperitoneal injection of alloxan at a dose of 150 mg/kg body weight.
Blood glucose (BG) was assessed 5 days post-administration using peripheral tail vein blood. A threshold of 200 mg/dL was used to confirm severe hyperglycemia. […] The end of week 3 thus marked the point of confirmed diabetes and the onset of pharmacological interventions. […] The full experimental timeline extended over 8 weeks.
To minimize potential confounders, all experimental procedures—including compound administration and blood glucose level measurements— were performed at the same time of day for all animals. Blood glucose (BG) levels were monitored weekly using a portable glucometer (tail vein blood).
To quantify the hypoglycemic effect of the applied treatments, the percentage decrease in blood glucose was calculated based on pre- and post-treatment values using the following formula: Absolute decrease in blood glucose %=blood glucose (pre−treatment)−blood glucose (post−treatment)/blood glucose (pre−treatment)×100

Data set [2] can be described thus: Plasma steady-state concentration by HPLC and volume of distribution. The following applies: female, Wistar, rat, oral, 300 mg/kg/day, rats, oral daily dosing 5 weeks, HPLC, metformin 300 mg/kg/day, S 150 mg/kg/day.
Description: At the end of the experimental period, blood samples were collected from the retro-orbital plexus under ketamine anesthesia (75 mg/kg body weight). Samples were collected into EDTA-coated tubes and stored at −20 °C until biochemical analyses were performed. Finally, the animals were humanely euthanized using Thiopental 0.01%.
Extraction of the target compounds from whole blood samples was performed using a liquid–liquid extraction method, with dichloromethane as the organic solvent (sample: solvent ratio 1:2). The extraction was carried out under acidic conditions (pH 3, using 4% acetic acid). Following centrifugation, the organic phase was evaporated under a stream of high-purity nitrogen gas at 40 °C (Thermo Scientific, Bremen, Germany). The resulting dry residue was reconstituted in 500 µL of 10% methanol in water.
Separation was achieved on a 150-4.6 LiChrospher®RP-18, 5 µm, column (Merck, Darmstadt, Germany). […] The flow rate was set to 1.0 mL/min, and the total run time for each analysis was 30 min.
The volume of distribution at steady state (Vd) was calculated using the following formula: Vd=D/Css(L) where D represents the administered dose, calculated individually based on each animal’s body weight (mg/kg), and Css is the steady-state plasma concentration (mg/L).
On the set-up of data set [3]: method as in earlier work. The following applies: rats, ref 42 (Choi et al. 2006); cited from earlier work.

Values joined by “and” are separate entries in the source; they are usually repeats but may differ in a detail not shown here. Equal entries are not always repeated.

The text below walks through data of paper PMC12297955, “Comparative Study: Biguanide-, Sulfonamide-, and Natural Agent-Based Interventions in an In Vivo Experimental Diabetes Model” (Medicina, 2025).

For the compound “N-(diaminomethylene)-4-methylbenzenesulfonamide”, in data set [1], the “Blood glucose (BG) level, mean” value is 236.0 ± 94.70 mg/dL; the “Average blood glucose reduction (pre- vs post-treatment)” value is 40.6% and 40.95 ± 15.94%.

As for `CN(C)C(=N)N=C(N)N` [metformin], in data set [2] (Average plasma concentration (steady state), mean ± SD), the concentration at 5 weeks is 5320 ± 1580 ng/mL. The compound further registered a concentration at 5 weeks in data set [2] (Plasma concentration, range) of 3170 to 7540 ng/mL. Also, in data set [3], the “Fraction of oral dose subject to gastrointestinal and hepatic first-pass effects” value is on record as “approximately 65%”. Besides, in data set [1], the “Blood glucose (BG) level, mean” value is reported as 224.8 ± 192.78 mg/dL; the “Average blood glucose reduction (pre- vs post-treatment)” value was 36.4% and 36.46 ± 32.5% and 36.46%.
